Data taken from patent US20100152303A1, “AGENTS AND METHOD FOR […] […]” (priority 2000, published 2010).

Legend:
ERP57 = assay: Effect of methoxychlor on ERP57 concentration in rat livers (immunoelectrophoresis of liver microsomes); format: in vivo; conditions: male CD rats, gavage in corn oil, 14 days, dosages 10, 50, and 100 mg/kg/day
Description: The purpose of this experiment was to determine the effect of administering varying levels of methoxychlor for 14 days on the levels of the microsomal protein ERP57 in mammalian tissues.
Methoxychlor, potassium chloride, and Tris were purchased from Sigma Chemicals (St. Louis, Mo.). The BCA (Bicinchoninic Acid) Assay kits were purchased from Pierce Chemical Company (Rockford, Ill.). Agarose was purchased from Boehringer Mannheim (Indianapolis, Ind.). Polyclonal antibodies to the ERP57 were developed in laying hens as previously described (Srivastava et al. 1991, J. Biol. Chem. 266: 20337-20344; Chen et al. 1996, Biochemistry 25: 8299-8306).
The animals used in these studies were 150-200 g fed, male, CD rats from Harlan Laboratories. […] The microsomal suspensions were aliquoted and stored at −80° C. until analyzed.
The concentrations of total microsomal protein were then determined via the BCA assay. […]
The concentration of ERP57 in the samples was determined with immunoelectrophoresis. […]
The indicator dye was a combination of nitroblue tetrazolium and 5-bromo-4-chloro-3-indoyl phosphate from Bio Rad (Richmond, Calif.). […] The densities of the stained bands were determined on a flat bed scanner from UMAX (Taiwan, China). The scans were analyzed using NIH Image (version 1.54) on a PowerPC (Apple Computer). The blank for each band was determined from the adjacent, unreacted area in the lane.

[1] = cited from earlier work

In the case of `COc1ccc(C(c2ccc(OC)cc2)C(Cl)(Cl)Cl)cc1` [methoxychlor, 1,1,1-trichloro-2,2-bis-(4-methoxyphenyl)ethane], the “relative concentration of ERP57 in the rat liver, normalized by total microsomal protein” value (ERP57) is listed as “significant increase” and the “rat oral LD50” value [1] is listed as over 6000 mg/kg.
